From patent US11925622B2, “Role of novel carbazole linked 1, 2, 3- triazole analogs in alleviating methylglyoxal-mediated late diabetic vascular complications” (priority 2021, dated 2024)
Values joined by “and” are separate entries in the source; they are usually repeats but may differ in a detail not shown here. Equal values may be shown once.

Experiments:
[1] = test system: MGO-AGEs-induced ROS in THP-1 monocytes; assay: Anti-oxidation activity, DCFH-DA assay of MGO-AGEs-mediated ROS in monocytes; format: cell-based, human; details: for ROS (DCF fluorescence) in MGO-AGEs-treated monocytes: 100 μM (maximum inhibition), MGO-AGEs 50 μg/mL, 24 h; for antioxidant activity / ROS production inhibition (in words): MGO-AGEs 50 μg/mL-treated THP-1 monocytes
Procedure: Anti-oxidation activity: The measurement of effect of derivatives on AGEs-mediated ROS was based on the previously reported protocol of Soumyarani and colleagues with slight amendments. Initially, 1×10^6 monocytes/mL were loaded in sterile 96-well flat bottom black fluorescent plate, and pre-incubated with DCFH-DA (10 μM; Sigma-Aldrich Chemical Corporation, St. Louis, Missouri, USA) for 45 min at 37° C. Followed by the incubation, antiglycating, non-toxic carbazole-linked triazole derivatives (10, 30, 50, and 100 μM) were added to the wells for 1 h before co-treatment of cells with MGO-AGEs (50 μg/mL) for next 24 h. Next, the fluorometric measurement of converted DCFH into oxidized DCF product was carried out via spectrofluorimeter (Varioskanmicroplate reader, Thermo Fisher Scientific, USA) using 485 nm excitation and 520 nm emission wavelengths. Various controls were plated in each experiment. Wells containing culture RPMI with MGO-AGEs (50 μg/mL) and H2O2 ([…]) served as positive controls, while cells containing BSA were taken as negative control.

[2] = test system: NF-κB (p65) translocation in monocytes; assay: NF-κB (p65) translocation analysis by immunocytochemistry; format: cell-based, human; details: compounds 100 μM, 1 h pre-incubation; AGEs 50 μg/mL 1 h; MGO-AGEs control 75 RFU, BSA 11 RFU
Procedure: NF-κB (p^65) translocation analysis: The monocytes at the density of 1×10^6 cells/mL were pre-incubated with compounds (100 μM) for an h, and then co-incubated with AGEs (50 μg/mL) for another 1 h in a 24-well plate at 37° C. Following treatment, cells were fixed with paraformaldehyde (4% PFA; 10 min), and permeabilized with Triton X-100 (0.2%; 10 min). Next, the cells were rinsed with chilled PBS three times, and incubated with bovine serum albumin (1% BSA; 1 h) to block the non-specific binding sites. Cells were exposed to primary antibody against NF-κB (p 65) (1:300 dilution, Thermo Fisher Scientific, Waltham, MA, USA) for overnight at 4° C. Subsequently followed by washing the cells with chilled PBS three times, secondary antibody (polyclonal fluorescein isothiocyanate (FITC)-conjugated antibody) to rabbit IgG (1:1000 dilution, Abeam, Cambridge, UK) was used.
Nuclei were counterstained by using DAPI (Thermo Fisher Scientific, Waltham, MA, USA). The BSA-treated monocytes (50 μg/mL) had served as a negative control, while AGEs-treated monocytes (50 μg/mL) as positive control. All the images were taken by using Nikon microscope (Nikon, Tokyo, Japan). The quantification of images was carried out via ImageJ (Image processing and analysis in Java-NIH).

COX-2 = COX-2 protein levels analysis by immunoblotting; format: cell-based; details: human monocytes co-treated with MGO-AGEs 50 μg/mL; immunoblot densitometry
Procedure: COX-2 protein levels analysis: The 50 μg/mL of protein was loaded onto 10% sodium dodecyl sulfate-polymerized acrylamide gel electrophoresis (SDS-PAGE), and transferred to nitrocellulose membranes using power blotter XL System (Invitrogen; Thermo Fisher Scientific). Subsequently, the membrane was incubated for 1 h in 1% bovine serum albumin in PBS with 0.1% Tween-20 to block unspecified binding. The protein bands of the membrane were probed with primary monoclonal antibody COX-2 (Thermo Fisher Scientific, Waltham, MA, USA), and B-actin (Cloud-Clone Corp., Wuhan, China) for overnight at 4° C. Following incubation, the membrane was rinsed with tris buffer saline tween (TBST) three times, and then exposed to secondary antibody (HRP mouse mono anti-rabbit IgG; Abeam, Cambridge, UK) at room temperature for an hour. The washing was again carried three times with TBST, and then the membrane was exposed to ECL (Sangon biotech, Shanghai, China) to visualize the bands in Western Blot Detection System (Thermo Fisher Scientific, Waltham, MA, USA). The densitometry of immuno-positive COX-2, and β-actin bands was used by Image J.

PGE2 = PGE2 levels analysis by ELISA in THP-1 culture supernatants; format: cell-based, human; details: THP-1, compounds 1 h, then AGEs 50 μg/mL
Procedure: PGE2 levels analysis: ELISA-based method was employed to identify the concentration of PGE2 in culture supernatants of THP-1 cells that was initially exposed with compounds for 1 h, and then stimulated with AGEs (50 μg/mL). All the steps were followed according to the manufacturer's protocols.

[3] = test system: MGO-mediated BSA glycation; assay: In vitro antiglycation activity, MGO-BSA glycation assay (fluorescence); format: biochemical, bovine; details: for IC50 / % inhibition of MGO-BSA glycation: BSA 10 mg/mL, MGO 0.1 M, 24 h, 37° C.; for IC50: read-out: IC50 antiglycation, MGO-BSA model; for % inhibition of MGO-BSA glycation: compounds at 1 mM
Procedure: In vitro antiglycation activity: The MGO-BSA assay was performed as per optimized protocol of Jahan, H. et al with slight modifications. Initially, the antiglycation activity of parent compound carbazole (1), and carbazole-linked 1,2,3 triazoles 2-16 were identified at 1 mM using MGO-BSA model. […] BSA (10 mg/mL) incubated with MGO (0.1 M) for 24 h at 37° C. using phosphate-azide buffer (0.1 mM), served as a positive control. The wells with BSA only were taken as negative control. Whereas, rutin and quercetin were used as standard antiglycation agents. After 24 h of incubation, the fluorescence of each well was measured by using microplate reader (Varioskan lux, Thermo Fisher Scientific, 319 Scientific, USA) at 355 nm excitation, and 460 nm emission.
The % inhibition of MGO-BSA-mediated by carbazole-triazole derivatives was quantified by using the following formula: […]
The IC50 of active antiglycation compounds were identified by using EZ-FIT Enzyme Kinetics Program (Perrella Scientific Inc., Amherst, USA).

Row | IC50 [3] [µM] | SMILES | ROS (DCF fluorescence) in MGO-AGEs-treated monocytes [1] [RFU] | NF-κB translocation in MGO-AGEs-treated monocytes [2] [RFU] | reduction in COX-2 levels compared to MGO-BSA-treated cells (COX-2) | effect on PGE2 levels (in words) (PGE2) | antiglycation activity in MGO-BSA model (in words) [3] | % inhibition of MGO-BSA glycation [3] [%] | antioxidant activity / ROS production inhibition (in words) [1]
1 |  | N.S=C(S)N1CCCC1 [PDTC, reference compound] | 7.84 | 45 | 1.60 fold | relatively more suppression than quercetin |  |  | 
2 | 135 ± 5 | Cc1ncc([N+](=O)[O-])n1CCn1cc(Cn2c3ccccc3c3ccccc32)nn1 [Compound 13, 9-((1-(2-(2-Methyl-5-nitro-1H-imidazol-1-yl)ethyl)-1H1,2,3-triazol-4-yl)methyl)-9H-carbazole] | 8.75 | 54 |  | reduced PGE2 levels significantly | good activity | 77.8 | excellent ROS production inhibition
3 | 104 ± 2 | C[C@@H]1O[C@@H](OC[C@H]2O[C@@H](Oc3c(-c4ccc(O)c(O)c4)oc4cc(O)cc(O)c4c3=O)[C@H](O)[C@@H](O)[C@@H]2O)[C@H](O)[C@H](O)[C@H]1O [Rutin, 2-(3,4-Dihydroxyphenyl)-5,7-dihydroxy-4-oxo-4H-chromen-3-yl 6-O-(6-deoxy-alpha-L-mannopyranosyl)-beta-D-glucopyranoside, reference compound] | 7.44 | 43 | 1.65 fold | relatively more suppression than quercetin |  | 67 | 

Row | SMILES | IC50 [3] [µM] | ROS (DCF fluorescence) in MGO-AGEs-treated monocytes [1] [RFU] | NF-κB translocation in MGO-AGEs-treated monocytes [2] [RFU] | reduction in COX-2 levels compared to MGO-BSA-treated cells (COX-2) | effect on PGE2 levels (in words) (PGE2) | antiglycation activity in MGO-BSA model (in words) [3] | % inhibition of MGO-BSA glycation [3] [%] | antioxidant activity / ROS production inhibition (in words) [1]
4 | O=C(Cn1cc(Cn2c3ccccc3c3ccccc32)nn1)c1ccc([N+](=O)[O-])cc1 [Compound 12, 2-(4-((9H-Carbazole-9-yl)methyl)-1H-1,2,3-triazole-1-y1)-1-(4-nitrophenyl)ethan-1-one] | 76.1 ± 6 | 6.32 | 33 | 2.11 fold and 3 fold | reduced PGE2 levels significantly | excellent antiglycation activity | 83.7 | excellent ROS production inhibition
